Experiments:
Format in all cases: cell-based
[1] = system: SKBR3 (PI3Kα wild type) cells; test: CellTiter-Glo 2.0 luminescent cell viability assay, 72 hours, SKBR3 cells; conditions: Homo sapiens, SK-BR-3, 72 h
Summary of the method: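 Viability measured via CTG luminescence following roughly 72 hours of compound exposure at 37° C. Dosing used a 10 um starting concentration diluted 1:4 over 10 points; percent-of-vehicle data fitted with a variable-slope four-parameter model for IC50.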

[2] = system: T47D (PI3Kα H1047R mutant) cells; test: Inhibition of pAKT formation, alphaLISA SureFire Ultra AKT 1/2/3 (pS473), T47D cells; conditions: Homo sapiens, T47D
Summary of the method: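 T47D cells (12,000/well) in HBSS were dosed with compound at 10 concentrations (10.4 μM top, 1:4 dilutions) for about 1 h or 24 h at 37 °C, then lysed. pS473 AKT was read by alphaLISA. Signals were normalized to alpelisib and DMSO controls, and IC50 came from a four-parameter fit.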

[3] = system: T47D (PI3Kα H1047R mutant) cells; test: CellTiter-Glo 2.0 luminescent cell viability assay, 72 hours, T47D cells; conditions: Homo sapiens, T47D, 72 h
Summary of the method: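 Cells seeded at 1000 per well overnight were dosed with a 10-concentration, 1:4 series starting at 10 µM and incubated ~72 h at 37° C. Viability was read by CellTiter-Glo 2.0 luminescence after 30 min at room temperature. IC50 came from four-parameter fits of percent vehicle control.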

[4] = system: SKBR3 (PI3Kα wild type) cells; test: Inhibition of pAKT formation, alphaLISA SureFire Ultra AKT 1/2/3 (pS473), SKBR3 cells; conditions: Homo sapiens, SK-BR-3; Inhibition of pAKT in SKBR3 (PI3Kα wild type) cells; read-out: SKBR3 (WT) pAKT IC50 (nM) (H1047R mutant) IC50
Procedure: The ability of a compound of Formula (I) to inhibit the formation of pAKT was measured using alphaLISA Surefire Ultra AKT 1/2/3 (pS473) Assay Kit (#ALSU-PAKT-B50K) was obtained from Perkin Elmer (Waltham, MA).
To prepare assay plates for pAKT alphaLISA assays, cells were trypsinized, resuspended in fresh media, and viable cells were counted utilizing trypan blue exclusion. Prior to seeding, cells were washed with PBS and resuspended in HBSS (Gibco, #14025092). T47D (12,000/w), SKBR3(12,000/w), or MKN1(24,000/w) cells were seeded at 12 μl per well in a solid white flat bottom 384 cell culture plate (Perkin Elmer #6007680).
Immediately after seeding, cells were dosed using an Echo Liquid Handler (Beckman Coulter) with compounds at a […] starting concentration and serially diluted (1:4) for a total of 10 concentrations. […] Cells were incubated with the compounds (solubilized in DMSO) for approximately one hour or 24 hours at 37° C. After one hour (or 24 hours) of treatment, cells were lysed with 3 μl of the 5× lysis buffer (provided and incubated at room temperature for 15 min on a microtiter plate shaker). Once cells were sufficiently lysed, 7.5 μl of the acceptor bead mix (made using the manufacturers recommended dilutions) was added to each well and left on the microtiter plate shaker for 1 min prior to incubating plates at room temperature for one hour, in the absence of light. After one hour of incubation with the acceptor bead mix, 7.5 μl of the donor bead mix (made using the manufacturers recommended dilutions) was added to each well and left on the microtiter plate shaker for 1 min prior to incubating plates at room temperature overnight in the absence of light. Plates were then imaged the following day using a CLARIOstar microplate reader (BMG Labtech, Germany).
Percent of control values were calculated by subtracting the average signal from the positive control (alpelisib) treated wells from all treated wells (including DMSO control wells) and then divided by the average signal from the vehicle DMSO treated control wells. Percent of vehicle control values were plotted as log (inhibitor) vs. response-Variable slope (four parameters) for curve fitting and IC50 values were determined using XLfit.
Key: N.D. =not determined

[5] = SKBR3 (PI3Kα wild type) cells, CellTiter-Glo, approximately 72 hours, read-out: SKBR3 (WT) Viability IC50
[6] = T47D (PI3Kα H1047R mutant) cells, inhibition of pAKT (pS473) formation, approximately one hour or 24 hours treatment, read-out: T47D pAKT (H1047R mutant) IC50
[7] = T47D (PI3Kα H1047R mutant) cells, CellTiter-Glo, approximately 72 hours, read-out: T47D (H1047R mutant) Viability IC50

Compound	IC50 [1, 5]	IC50 [2, 6]	IC50 [3, 7]	IC50 [4]	IC50 ([1]; read-out: SKBR3 (WT) Viability IC50 (nM))	IC50 ([2]; read-out: T47D pAKT (H1047R mutant) IC50 (nM))	IC50 ([3]; read-out: T47D (H1047R mutant) Viability IC50 (nM))
Cc1cc([C@@H](C)Nc2ccc(Cl)nc2C(=O)O)c2nc(N3CCC(F)(F)CC3)c(C#N)c(=O)n2c1 [Example 10-67, (R)-6-chloro-3-((1-(3-cyano-2-(4,4-difluoropiperidin-1-yl)-7-methyl-4-oxo-4H-pyrido[1,2-a]pyrimidin-9-yl)ethyl)amino)picolinic acid]	> 10000 nM	14.1 nM	304 nM	> 10000 nM	–	–	–
Cc1cc([C@@H](C)Nc2ccccc2C(=O)O)c2nc(N3CCCCC3)c(C)c(=O)n2c1 [Example 10-74, (R)-2-((1-(3,7-dimethyl-4-oxo-2-(piperidin-1-yl)-4H-pyrido[1,2-a]pyrimidin-9-yl)ethyl)amino)benzoic acid]	> 10000 nM	3.23 nM	120 nM	1460 nM	–	–	–
Cc1cc([C@@H](C)Nc2ccccc2C(=O)O)c2nc(N3CCCCC3)c(C#N)c(=O)n2c1 [Example 10-99, (R)-2-((1-(3-cyano-7-methyl-4-oxo-2-(piperidin-1-yl)-4H-pyrido[1,2-a]pyrimidin-9-yl)ethyl)amino)benzoic acid]	9940 nM	0.978 nM	86.2 nM	2260 nM	–	–	–
Cc1ccc(-c2cc(=O)n3cc(C)cc(C(C)Nc4ccccc4C(=O)O)c3n2)cc1 (centres unmarked) [7-2, 2-((1-(7-methyl-4-oxo-2-(p-tolyl)-4H-pyrido[1,2-a]pyrimidin-9-yl)ethyl)amino)benzoic acid]	> 10000 nM	> 100000 nM	> 10000 nM	> 10000 nM	–	–	–
Cc1cc(C(C)Nc2ccccc2C(=O)O)c2nc(N3CCCCC3)cc(=O)n2c1 (centres unmarked) [Example 2, 2-((1-(7-methyl-4-oxo-2-(piperidin-1-yl)-4H-pyrido[1,2-a]pyrimidin-9-yl)ethyl)amino) benzoic acid]	–	–	–	> 10000 nM	> 10000 nM	14 nM	2970 nM
Cc1cc([C@@H](C)Nc2ccccc2C(=O)O)c2nc(N3CC4CC(C3)C4(F)F)c(C#N)c(=O)n2c1 [Example 10-69, 2-(((1R)-1-(3-cyano-2-(6,6-difluoro-3-azabicyclo[3.1.1]heptan-3-yl)-7-methyl-4-oxo-4H-pyrido[1,2-a]pyrimidin-9-yl)ethyl)amino)benzoic acid]	> 10000 nM	3.69 nM	165 nM	1800 nM	–	–	–
Cc1cc([C@@H](C)Nc2ccccc2C(=O)O)c2nc(N3CC(F)(F)C3)c(C#N)c(=O)n2c1 [Example 10-27, (R)-2-((1-(3-cyano-2-(3,3-difluoroazetidin-1-yl)-7-methyl-4-oxo-4H-pyrido[1,2-a]pyrimidin-9-yl)ethyl)amino)benzoic acid]	> 10000 nM	2.1 nM	52 nM	780 nM	–	–	–
Cc1cc([C@@H](C)Nc2nccnc2C(=O)O)c2nc(N3CCC(F)(F)CC3)c(C#N)c(=O)n2c1 [Example 10-63, (R)-3-((1-(3-cyano-2-(4,4-difluoropiperidin-1-yl)-7-methyl-4-oxo-4H-pyrido[1,2-a]pyrimidin-9-yl)ethyl)amino)pyrazine-2-carboxylic acid]	> 10000 nM	144 nM	3720 nM	> 10000 nM	–	–	–
Cc1cc([C@@H](C)Nc2ccc(Cl)cc2C(=O)O)c2nc(N3CCC(F)(F)CC3)c(C#N)c(=O)n2c1 [Example 10-64, (R)-5-chloro-2-((1-(3-cyano-2-(4,4-difluoropiperidin-1-yl)-7-methyl-4-oxo-4H-pyrido[1,2-a]pyrimidin-9-yl)ethyl)amino)benzoic acid]	> 10000 nM	16.1 nM	628 nM	847 nM	–	–	–

The next lines start with results.

IC50 [1, 5]	IC50 [2, 6]	IC50 [3, 7]	IC50 [4]	Compound	IC50 ([1]; read-out: SKBR3 (WT) Viability IC50 (nM))	IC50 ([2]; read-out: T47D pAKT (H1047R mutant) IC50 (nM))	IC50 ([3]; read-out: T47D (H1047R mutant) Viability IC50 (nM))
> 10000 nM	> 10000 nM	4890 nM	> 10000 nM	Cc1cc([C@@H](C)Nc2ccccc2C(=O)O)c2nc(N3CCCCC3)c(C(F)(F)F)c(=O)n2c1 [Example 10-71, (R)-2-((1-(7-methyl-4-oxo-2-(piperidin-1-yl)-3-(trifluoromethyl)-4H-pyrido[1,2-a]pyrimidin-9-yl)ethyl)amino)benzoic acid]	–	–	–
> 10000 nM	> 10000 nM	4680 nM	> 10000 nM	Cc1cc([C@@H](C)Nc2ccccc2C(=O)O)c2nc(N3CCCCC3)c(C(N)=O)c(=O)n2c1 [Example 10-70, (R)-2-((1-(3-carbamoyl-7-methyl-4-oxo-2-(piperidin-1-yl)-4H-pyrido[1,2-a]pyrimidin-9-yl)ethyl)amino)benzoic acid]	–	–	–
> 10000 nM	3.29 nM	135 nM	1030 nM	Cc1cc([C@@H](C)Nc2ccccc2C(=O)O)c2nc(N3CCCC3)c(C#N)c(=O)n2c1 [Example 10-73, (R)-2-((1-(3-cyano-7-methyl-4-oxo-2-(pyrrolidin-1-yl)-4H-pyrido[1,2-a]pyrimidin-9-yl)ethyl)amino)benzoic acid]	–	–	–
> 10000 nM	4.84 nM	566 nM	8650 nM	Cc1cc([C@@H](C)Nc2cccc(F)c2C(=O)O)c2nc(N3CCC(F)(F)CC3)c(C#N)c(=O)n2c1 [Example 10-62, (R)-2-((1-(3-cyano-2-(4,4-difluoropiperidin-1-yl)-7-methyl-4-oxo-4H-pyrido[1,2-a]pyrimidin-9-yl)ethyl)amino)-6-fluorobenzoic acid]	–	–	–
> 10000 nM	1.33 nM	151 nM	2480 nM	Cc1cc([C@@H](C)Nc2ccccc2C(=O)O)c2nc(N3CCC(C)(C)CC3)c(C#N)c(=O)n2c1 [Example 10-72, (R)-2-((1-(3-cyano-2-(4,4-dimethylpiperidin-1-yl)-7-methyl-4-oxo-4H-pyrido[1,2-a]pyrimidin-9-yl)ethyl)amino)benzoic acid]	–	–	–
> 10000 nM	1370 nM	> 10000 nM	> 10000 nM	Cc1cc([C@@H](C)Nc2ccccc2C(=O)O)c2nc(N3CC4(C3)CC(F)(F)C4)c(C#N)c(=O)n2c1 [Example 10-66, (R)-2-((1-(3-cyano-2-(6,6-difluoro-2-azaspiro[3.3]heptan-2-yl)-7-methyl-4-oxo-4H-pyrido[1,2-a]pyrimidin-9-yl)ethyl)amino)benzoic acid]	–	–	–
8970 nM	1.35 nM	48.3 nM	1200 nM	Cc1cc([C@@H](C)Nc2ccccc2C(=O)O)c2nc(N3CCC(F)(F)CC3)c(C#N)c(=O)n2c1 [Example 10-23, (R)-2-((1-(3-cyano-2-(4,4-difluoropiperidin-1-yl)-7-methyl-4-oxo-4H-pyrido[1,2-a]pyrimidin-9-yl)ethyl)amino)benzoic acid]	–	–	–
> 10000 nM	3.25 nM	246 nM	681 nM	Cc1cc([C@@H](C)Nc2ccccc2C(=O)O)c2nc(C3CCC(F)(F)CC3)c(C#N)c(=O)n2c1 [Example 10-65, (R)-2-((1-(3-cyano-2-(4,4-difluorocyclohexyl)-7-methyl-4-oxo-4H-pyrido[1,2-a]pyrimidin-9-yl)ethyl)amino)benzoic acid]	–	–	–
> 10000 nM	0.853 nM	36.4 nM	–	Cc1cc([C@@H](C)Nc2ccccc2C(=O)O)c2nc(NCC3CC3)c(C#N)c(=O)n2c1 [Example 10-15, (R)-2-((1-(3-cyano-2-((cyclopropylmethyl)amino)-7-methyl-4-oxo-4H-pyrido[1,2-a]pyrimidin-9-yl)ethyl)amino)benzoic acid]	–	–	–

Reference: patent publication US20260078120A1, “SUBSTITUTED PYRIDOPYRIMIDINONES” (MIRATI THERAPEUTICS, INC., priority 2022, published 2026)
